Results from US20230390406A1, “Star Polymer Drug Conjugates” (Vaccitech North America, Inc., priority 2020, published 2023).
Where a SMILES comes first, the peptide text is derived from it.

What was measured:
[1] = target: T1, human cathepsin B (Homo sapiens, UniProt P07858); assay: Cleavage of AMC-peptides by cathepsin B (HPLC, 350 nm); format: biochemical; conditions: pH 5, 37° C., up to 6 hrs
T1 construct: purchased Sino Biological
Description: (§1) A series of peptide-based small molecules were screened in vitro to characterize their lability in human cathepsin B and mouse plasma enzymes. The screening protocol was adapted from literatures^1,2 and is shown below in FIGS. 31 and 32. In short, a small library of peptides conjugated to 7-amino-4-methylcoumarin (AMC-peptides) were synthesized by standard solid-phase peptide synthesis (SPPS) by Genscript (Piscataway, NJ), as summarized in the Table 18. They were first dissolved in DMSO as 10 mM stock solution and then incubated in the presence of PBS buffer (Gibco, 10010-031), cathepsin B (Sino Biological, protein human recombinant), and mouse plasma (BioIVT, C57BL/6 li-hep pooled, female). Substrates of either cathepsin B or plasma enzymes (and not PBS) afforded cleavage of the peptide-AMC bond. The resultant free AMC elutes at a different time from the parent AMC-conjugated peptides on the HPLC, thereby the linker degradation was monitored and quantified over time (i.e., 5 min, 1 hr and 6 hrs). PBS buffer solution was used as the matrix for the negative control. Cleavage of cathepsin B substrate Ill (Millipore Sigma, 219392) served as the positive control.
(§2) The stability of the analyte peptide was determined by the comparing the area-under-curve (AUC) of analyte peaks at 350 nm following formula: […]

[2] = test system: mouse plasma enzymes; assay: Stability of AMC-peptides in mouse plasma (HPLC, 350 nm); format: in vitro ADME; conditions: up to 6 hrs
Description: Peptide linker stock solutions (10 mM in DMSO) are diluted to 1 mM and then incubated with mouse plasma; aliquots are removed, blood proteins are precipitated with cold acetonitrile, pelleted with centrifugation, and the supernatant analyzed by HPLC.
as §1, §2

[3] = test system: MC38 tumors; assay: MC38 tumor model, single intratumoral injection of 7 nmol STINGa (diABZI); format: in vivo, C57BL/6 mice; conditions: 7 nmol STINGa IT day 11, versus vehicle / untreated
Description: (§3) Tumor size was measured by digital calipers for up to 30 days after tumor implantation (FIG. 12 B & C). To assess acute toxicity, mice were bled 4 hours after treatment, and blood IP-10 concentration was assessed by ELISA (FIG. 12D).
(§4) To further assess the impact of linkage on efficacy and tolerability in vivo, select compositions of the Compound listed in Table 9 were evaluated in tumor-bearing mice (FIG. 12). The study design is shown in (FIG. 12A). […] Tumors were allowed to grow until all mice in the study had palpable tumors. On day 11, mice were treated with a single intratumoral (IT) injection of 7 nmol of STINGa (diABZI) as either Compound 56, Compound 94, Compound 95, Compound 96 or Compound 97 in PBS. As a control, a group of mice was treated with the formulation vehicle (7% DMSO in PBS). Tumors were measured biweekly to track tumor growth after treatment. Tolerability was assessed by measuring the amount of Interferon-gamma-induced protein 10 (IP-10) in the serum of animals 4 hours after intratumoral injection.

[4] = test system: Interferon-gamma-induced protein 10 (IP-10); assay: Serum IP-10 (ELISA) 4 hours after intratumoral injection (tolerability); format: in vivo, C57BL/6 mice; conditions: 4 hours after 7 nmol IT
Description: as §3, §4

[5] = Particle / hydrodynamic size (Rh, Dh) by dynamic light scattering; format: physicochemical
Description: Samples were suspended at 0.5 mg/mL in PBS pH 7.4 and particle size was determined using dynamic light scattering (Malvern ZetaSizer Ultra).

[6] = Turbidity (OD 490 nm) / solubility in PBS buffer at different pH; format: physicochemical
[7] = test system: CT26 tumors; assay: CT26 tumor model, single intratumoral injection of 35 nmol STINGa; format: in vivo, BALB/c mice; conditions: 35 nmol STINGa IT, versus vehicle or free STINGa
Description: Tumor size was measured by digital calipers (FIG. 11B) and survival (FIG. 11C) were assessed up to 80 days after tumor implantation.
To assess the impact of linkage on efficacy in vivo, select compositions were tested in tumor-bearing mice (FIG. 11). The study design is shown in (FIG. 11A). BALB/c mice were implanted subcutaneously with 10^5 cells of the syngeneic tumor line CT26 on day 0. Tumors were allowed to grow until all mice in the study had palpable tumors. On day 12, mice were treated with a single intratumoral (IT) injection of 35 nmol of the STINGa as either (i) Compound 56 (amide linkage); (ii) Compound 94 hydrazone (Hz) linkage; or (iii) the free STINGa. An additional group of mice was treated with the formulation vehicle (7% DMSO in PBS) as a negative control. Tumors were measured biweekly to track tumor growth after treatment.

Compound	stability / cleavage in the presence of cathepsin B [1]	stability in mouse plasma [2]	Rh (nm) at pH 7.4 [5]	other results
CCCC[C@H](NC(=O)[C@H](CO)NC(=O)[C@H](CCCCNC(C)=O)NC(=O)[C@H](CO)NC(=O)CCNC(C)=O)C(=O)Nc1ccc2c(C)cc(=O)oc2c1 [AO, Ac-A′SK(Ac) SnL-AMC] (HELM PEPTIDE1{[ac].[bAla].S.K.S.[Nle].[Cc1cc(=O)oc2cc(N[*:1])ccc12]}|PEPTIDE2{[ac]}$PEPTIDE1,PEPTIDE2,4:R3-1:R2$$$V2.0)	readily cleaved	significant stability	–	–
N3-p[(HPMA)-co-(MA-b-Ala-VZ-PAB-diABZI)]-Pg [Compound 96]	–	–	26.9 nm	tumor control [3]: improved tumor control; serum IP-10 level compared to free STINGa [4]: lower
PAMAM-g-poly[(HPMA-co-Ma-b-Ala-2BXy)-b-HPMA]-Pg [Compound 78]	–	–	12.9 nm	Turbidity at pH 7.4 [6]: 0.041
N3-p[(HPMA)-co-(MA-b-Ala-Hz-HA-diABZI)]-Pg [Compound 94]	–	–	10.0 nm	survival [7]: improved; tumor control / tumor growth [7]: improved tumor control; tumor control [3]: improved tumor control; serum IP-10 level compared to free STINGa [4]: similar
N3-poly[(HPMA-co-Ma-b-Ala-2BXy)-b-(HPMA-co-Ma-propyl-NH2)]-Pg [Compound 68]	–	–	6.5 nm	Rh (nm) at pH 6.5 [5]: 5.6 nm
CCC(NC(=O)[C@H](CO)NC(=O)[C@H](CCCCNC(C)=O)NC(=O)[C@H](CO)NC(=O)CCNC(C)=O)C(=O)Nc1ccc2c(C)cc(=O)oc2c1 (some centres unmarked) [Compound AK, Ac-A′SK(Ac) SB-AMC] (HELM PEPTIDE1{[ac].[bAla].S.K.S.[CCC(N[*:1])C(=O)[*:2]].[Cc1cc(=O)oc2cc(N[*:1])ccc12]}|PEPTIDE2{[ac]}$PEPTIDE1,PEPTIDE2,4:R3-1:R2$$$V2.0)	readily cleaved	significant stability	–	–
CCC(NC(=O)[C@@H](NC(=O)[C@@H]1CCCN1C(=O)[C@H](CO)NC(=O)CCNC(C)=O)C(C)C)C(=O)Nc1ccc2c(C)cc(=O)oc2c1 (some centres unmarked) [AI, Ac-A′SPVB-AMC] (HELM PEPTIDE1{[ac].[bAla].S.P.V.[CCC(N[*:1])C(=O)[*:2]].[Cc1cc(=O)oc2cc(N[*:1])ccc12]}$$$$V2.0)	metabolized quickly	metabolized quickly	–	–
PAMAM-g-poly[(HPMA-co-Ma-b-Ala-2BXy)-b-(HPMA-co-Ma-propyl-NH2]-Pg [Compound 80]	–	–	12.4 nm	Turbidity at pH 7.4 [6]: 0.043
CC[C@H](NC(=O)[C@@H](NC(=O)CCNC(C)=O)C(C)C)C(=O)Nc1ccc2c(C)cc(=O)oc2c1 [Compound AH, Ac-A′VB-AMC] (HELM PEPTIDE1{[ac].[bAla].V.[Abu].[Cc1cc(=O)oc2cc(N[*:1])ccc12]}$$$$V2.0)	metabolized quickly	metabolized quickly	–	–
CCCCC(NC(=O)[C@H](CO)NC(=O)[C@H](CCCCN)NC(=O)[C@H](CO)NC(=O)CCNC(C)=O)C(=O)Nc1ccc2c(C)cc(=O)oc2c1 (some centres unmarked) [AP, Ac-A′SKSnL-AMC] (HELM PEPTIDE1{[ac].[bAla].S.K.S.[CCCCC(N[*:1])C(=O)[*:2]].[Cc1cc(=O)oc2cc(N[*:1])ccc12]}$$$$V2.0)	readily cleaved	significant stability	–	–
CCC(NC(=O)[C@H](CO)NC(=O)[C@H](CCCCN)NC(=O)[C@H](CO)NC(=O)CCNC(C)=O)C(=O)Nc1ccc2c(C)cc(=O)oc2c1 (some centres unmarked) [AL, Ac-A′SKSB-AMC] (HELM PEPTIDE1{[ac].[bAla].S.K.S.[CCC(N[*:1])C(=O)[*:2]].[Cc1cc(=O)oc2cc(N[*:1])ccc12]}$$$$V2.0)	readily cleaved	significant stability	–	–
CCCC[C@H](NC(=O)[C@@H](NC(=O)[C@@H]1CCCN1C(=O)[C@H](CO)NC(=O)CCNC(C)=O)C(C)C)C(=O)Nc1ccc2c(C)cc(=O)oc2c1 [AN, Ac-A′SPVnL-AMC] (HELM PEPTIDE1{[ac].[bAla].S.P.V.[Nle].[Cc1cc(=O)oc2cc(N[*:1])ccc12]}$$$$V2.0)	metabolized quickly	metabolized quickly	–	–
CCC(NC(=O)[C@@H](NC(=O)[C@H](CCCCNC(C)=O)NC(=O)[C@H](CO)NC(=O)CCNC(C)=O)C(C)C)C(=O)Nc1ccc2c(C)cc(=O)oc2c1 (some centres unmarked) [Compound AJ, Ac-A′SK(Ac) VB-AMC] (HELM PEPTIDE1{[ac].[bAla].S.K.V.[CCC(N[*:1])C(=O)[*:2]].[Cc1cc(=O)oc2cc(N[*:1])ccc12]}|PEPTIDE2{[ac]}$PEPTIDE1,PEPTIDE2,4:R3-1:R2$$$V2.0)	relatively stable	relatively stable	–	–
CCCCC(NC(=O)[C@@H](NC(=O)CCNC(C)=O)C(C)C)C(=O)Nc1ccc2c(C)cc(=O)oc2c1 (some centres unmarked) [AM, Ac-A′VnL-AMC] (HELM PEPTIDE1{[ac].[bAla].V.[CCCCC(N[*:1])C(=O)[*:2]].[Cc1cc(=O)oc2cc(N[*:1])ccc12]}$$$$V2.0)	metabolized quickly	metabolized quickly	–	–
N3-poly(HPMA-co-Ma-b-Ala-2BXy-co-Ma-b-Ala-dimethylethylenediamine)-Pg [Compound 52]	–	–	–	Rh (nm) at pH 6.5 [5]: 4.1 nm
N3-p[(HPMA)-co-(MA-b-Ala-cHz-HA-diABZI)]-Pg [Compound 95]	–	–	7.3 nm	tumor control [3]: improved tumor control; serum IP-10 level compared to free STINGa [4]: lower
N3-poly(HPMA-co-Ma-b-Ala-diABZI)-Pg [Compound 56]	–	–	(aggregate)	survival [7]: comparable to the mice that received the vehicle; tumor control / tumor growth [7]: comparable to the mice that received the vehicle; tumor control [3]: not
N3-p[(HPMA)-co-(MA-b-Ala-PEG4-VZ-PAB-diABZI)]-Pg [Compound 97]	–	–	7.6 nm	tumor control [3]: improved tumor control; serum IP-10 level compared to free STINGa [4]: lower
N3-poly[(HPMA-co-Ma-b-Ala-2BXy)-b-HPMA]-Pg [Compound 62]	–	–	6.6 nm	Turbidity at pH 6.5 [6]: 0.039; Turbidity at pH 7.4 [6]: 0.039; Rh (nm) at pH 6.5 [5]: 6.9 nm
N3-poly(HPMA-co-Ma-b-Ala-2BXy-co-Ma-b-Ala-COOH)-Pg [Compound 48]	–	–	–	Turbidity at pH 6.5 [6]: Aggregate; Turbidity at pH 7.4 [6]: 0.043; Rh (nm) at pH 6.5 [5]: 48.0 nm
